Results published in US20090156625A1, “Novel Use of a Nicotinic Receptor Agonist 156” (AstraZeneca AB, priority 2007, published 2009).
Like-named read-outs stand apart in the source and are kept apart here.

What was measured:
[1] = system: MMP13; assay: Histamine induced acute articular inflammation in mouse: MMP13 fluorokine ELISA of cartilage extract; assay type: in vivo; conditions: for cartilage extract MMP13 levels: C57B16 mice, oral
Protocol: (§1) At 1-hour post oral treatment with either vehicle hydroxypropyl methylcellulose (HPMC) or E1, C57B16 mice were anaesthetized under isofluorane by inhalation. An H1 specific receptor antagonist desloratadine (5 mg/kg) was used as a positive control. The left hind knee was shaved, dampened with 70% ethanol and injected intra articularly into the knee joint (6 μl volume) with either saline or histamine (5 μM) using a glass Hamilton syringe and 30-gauge needle. Mice were allowed to recover in their home cage and kept on study for 48 hours post injection and dosed with compound.
(§2) After synovial lavage, the joint was disarticulated and cartilage was removed with a scalpel from the tibial plateau & femoral condyle, taking care to minimise the amounts of bone. Cartilage samples were weighed and snap frozen. The cartilage from individual animals was extracted in 200 μl high salt buffer (HSB) overnight at 4° C. with gentle agitation.
(§3) Samples were centrifuged at 10000 rpm for 10 min and the HSB cartilage extract decanted and stored at −80° C. prior to analysis.
MMP13 fluorokine ELISA (96-Well Plate Format)
HSB cartilage extracts were tested in duplicate at a 1:5 dilution. There were no deviations from the kit instructions (F13M00, R&D Systems) and the plate was read using an excitation wavelength of 320 nm and an emission wavelength of 405 nm.

[2] = system: S-GAG (aggrecanase activity); assay: Histamine induced acute articular inflammation in mouse: S-GAG analysis (DMMB assay) of cartilage extract; assay type: in vivo; conditions: C57B16 mice, oral
Protocol: as §1, §2, §3
HSB cartilage extracts were digested with hyaluronidase (110 units/ml) 37° C. for 3 hrs followed by papain digestion at 60° C. overnight. Digested samples were then centrifuged at 12000 g for 15 minutes. […] The plate was read immediately at 532 nm and 620 nm wavelengths and data calculated as O.D 532 nm/O.D 620 nm minus background. […]

[3] = Mouse PK in low dose pharmacodynamic study (micro-sampling, LC-MS/MS); assay type: in vivo; conditions: mice, oral 0.1, 0.001 and 0.0001 mg/kg b.i.d. for 48 hrs, blood
Protocol: Mice were weighed and orally dosed according to weight at a dose volume of 10 ml/kg (dosed at 0.1 mg/kg, 0.001 mg/kg and 0.0001 mg/kg b.i.d. for 48 hrs). The PK and low dose pharmacodynamic studies were performed in the same group of animals.
Individual mice were repeatedly sampled at various timepoints over the 48 hr duration of the study by taking small volumes of blood by micro-sampling technique. After heating and mild restrain behind a Perspex stand, the tip of the tail was pricked with a 24 gauge needle and whole blood collected into an EDTA 20 μl glass micro sampling tubes. The 20 μl blood sample was then mixed with 80 μls of distilled water and frozen until analysis.
At study termination the mice were culled using CO2 gas. A blood volume of about 0.4 mL was obtained by cardiac puncture. A volume of whole blood was then mixed with distilled water to lyse the cells (ratio 1:1) and stored for analysis.

[4] = In vivo PK in dog (Vss, Fabs)
Description: (§4) This Fabs parameter was then adjusted to bioavailability (F) by correction for hepatic extraction. […] The clinical dosing frequency desired was assumed to be once daily.

[5] = Human dose prediction; conditions: used for human Vss estimate
Description: Human dose prediction for clinical studies requires an estimate of human PK parameters important for defining the elimination T1/2 and the shape and magnitude of the plasma concentration vs time profile at a particular dose. These estimated parameters include Clearance, Volume of Distribution at Steady State (Vss), absorption rate constant (Ka), bioavailability (F) and dosing frequency. Human dose predictions also require some pharmacological evidence as to how exposure relates to efficacy (McGinnity, Collington, Austin & Riley, Current Drug Metabolism 2007 8 463-479).
Having defined the shape and magnitude of the human plasma concentration vs time curve, the final step was to adjust the dose so that plasma concentrations are attained that are likely to achieve efficacy. […] It was impossible to quantify the compound at these dose levels; consequently plasma concentrations observed at a higher oral dose (about 1 mg/kg) were extrapolated down to that likely at efficacious doses, assuming linear kinetics between the two. Finally, in the absence of a real PK/PD relationship in the mouse, it was assumed that efficacy in humans would be related to plasma AUC. Consequently, the human dose was adjusted to give, in conjunction with the estimated human PK parameters defined above, a human AUC value similar to that observed in mouse at efficacious doses.

[6] = rat, in vivo
Description: as §4

[7] = in vivo; conditions: mouse
Protocol: In order to gain confidence in predicting circulating levels, mouse PK at 1 mg/kg oral dosing was subsequently carried out.
Blood concentrations are given in nM.

[8] = in vivo; conditions: rat
Description: as §4

[9] = in vivo; conditions: guinea pig
Description: as §4

Compound: CNCc1ccc(-c2cnc3c(c2)C[C@@]2(CN4CCC2CC4)O3)s1 [Example E1, N-methyl-1-{5-[(2R)-3′H-spiro[4-azabicyclo[2.2.2]octane-2,2′-furo[2,3-b]pyridin]-5′-yl]-2-thienyl}methanamine]
- cartilage extract MMP13 levels ([1]; 0.0001 mg/kg b.i.d. for 48 hrs (further study, FIG. 6)): decreased levels of MMP13
- cartilage extract MMP13 levels ([1]; 0.001 mg/kg b.i.d. for 48 hrs (further study, FIG. 6)): decreased levels of MMP13
- cartilage extract MMP13 levels ([1]; 0.1 mg/kg b.i.d. for 48 hrs (further study, FIG. 6)): decreased levels of MMP13
- cartilage extract MMP13 levels ([1]; 0.1 mg/kg b.i.d. for 48 hrs, tibial cartilage (first study, FIG. 4)): decreased levels of MMP13
- cartilage extract MMP13 levels ([1]; 1 mg/kg b.i.d. for 48 hrs, tibial cartilage): decreased levels of MMP13
- cartilage extract MMP13 levels ([1]; 1 mg/kg once over the 48 hr study period, tibial cartilage): decreased levels of MMP13
- dose at which efficacy against MMP down-regulation and joint swelling was observed (as low as) ([1]; mouse PD studies): 0.1 µg/kg
- S-GAG cartilage levels ([2]; 1 mg/kg b.i.d. for 48 hrs): significantly reduced
- S-GAG cartilage levels ([2]; 1 mg/kg single dose over 48 hr): significantly reduced
- circulating levels [3]: could not be detected in many animals
- Fabs (fraction absorbed) ([4]; dog): 70%
- Vd ([4]; dog in vivo): 27 L/kg
- Vss derived by simple allometry across rat and dog [5]: 5.7 L/kg
- Fabs (fraction absorbed) [6]: 83%
- concentration at 0 h ([7]; 0.001 mg/kg): 0.0003 nM
- concentration at 0.17 h ([7]; 0.001 mg/kg): 0.0017 nM
- concentration at 0.33 h ([7]; 0.001 mg/kg): 0.0058 nM
- concentration at 0.5 h ([7]; 0.001 mg/kg): 0.0081 nM
- concentration at 0.75 h ([7]; 0.001 mg/kg): 0.0119 nM
- concentration at 1 h ([7]; 0.001 mg/kg): 0.0156 nM
- concentration at 2 h ([7]; 0.001 mg/kg): 0.0266 nM
- concentration at 4 h ([7]; 0.001 mg/kg): 0.0326 nM
- concentration at 6 h ([7]; 0.001 mg/kg): 0.0332 nM
- concentration at 8 h ([7]; 0.001 mg/kg): 0.0349 nM
- concentration at 10 h ([7]; 0.001 mg/kg): 0.0297 nM
- concentration at 12 h ([7]; 0.001 mg/kg): 0.0284 nM
- concentration at 24 h ([7]; 0.001 mg/kg): 0.0172 nM
- concentration at 0 h ([7]; 0.01 mg/kg): 0 nM
- concentration at 0.17 h ([7]; 0.01 mg/kg): 0.02 nM
- concentration at 0.33 h ([7]; 0.01 mg/kg): 0.06 nM
- concentration at 0.5 h ([7]; 0.01 mg/kg): 0.08 nM
- concentration at 0.75 h ([7]; 0.01 mg/kg): 0.12 nM
- concentration at 1 h ([7]; 0.01 mg/kg): 0.16 nM
- concentration at 2 h ([7]; 0.01 mg/kg): 0.27 nM
- concentration at 4 h ([7]; 0.01 mg/kg): 0.33 nM
- concentration at 6 h ([7]; 0.01 mg/kg): 0.33 nM
- concentration at 8 h ([7]; 0.01 mg/kg): 0.35 nM
- concentration at 10 h ([7]; 0.01 mg/kg): 0.3 nM
- concentration at 12 h ([7]; 0.01 mg/kg): 0.28 nM
- concentration at 24 h ([7]; 0.01 mg/kg): 0.17 nM
- concentration at 0 h ([7]; 0.03 mg/kg): 0.01 nM
- concentration at 0.17 h ([7]; 0.03 mg/kg): 0.05 nM
- concentration at 0.33 h ([7]; 0.03 mg/kg): 0.17 nM
- concentration at 0.5 h ([7]; 0.03 mg/kg): 0.24 nM
- concentration at 0.75 h ([7]; 0.03 mg/kg): 0.36 nM
- concentration at 1 h ([7]; 0.03 mg/kg): 0.47 nM
- concentration at 2 h ([7]; 0.03 mg/kg): 0.8 nM
- concentration at 4 h ([7]; 0.03 mg/kg): 0.98 nM
- concentration at 6 h ([7]; 0.03 mg/kg): 1 nM
- concentration at 8 h ([7]; 0.03 mg/kg): 1.05 nM
- concentration at 10 h ([7]; 0.03 mg/kg): 0.89 nM
- concentration at 12 h ([7]; 0.03 mg/kg): 0.85 nM
- concentration at 24 h ([7]; 0.03 mg/kg): 0.52 nM
- concentration at 0 h ([7]; 0.1 mg/kg): 0.03 nM
- concentration at 0.17 h ([7]; 0.1 mg/kg): 0.17 nM
- concentration at 0.33 h ([7]; 0.1 mg/kg): 0.58 nM
- concentration at 0.5 h ([7]; 0.1 mg/kg): 0.81 nM
- concentration at 0.75 h ([7]; 0.1 mg/kg): 1.19 nM
- concentration at 1 h ([7]; 0.1 mg/kg): 1.56 nM
- concentration at 2 h ([7]; 0.1 mg/kg): 2.66 nM
- concentration at 4 h ([7]; 0.1 mg/kg): 3.26 nM
- concentration at 6 h ([7]; 0.1 mg/kg): 3.32 nM
- concentration at 8 h ([7]; 0.1 mg/kg): 3.49 nM
- concentration at 10 h ([7]; 0.1 mg/kg): 2.97 nM
- concentration at 12 h ([7]; 0.1 mg/kg): 2.84 nM
- concentration at 24 h ([7]; 0.1 mg/kg): 1.72 nM
- AUC ([7]; po, 0.001 mg/kg): 0.29 nM·h
- Cmax ([7]; po, 0.001 mg/kg): 0.035 nM
- AUC ([7]; po, 0.01 mg/kg): 2.94 nM·h
- Cmax ([7]; po, 0.01 mg/kg): 0.349 nM
- AUC ([7]; po, 0.03 mg/kg): 8.81 nM·h
- Cmax ([7]; po, 0.03 mg/kg): 1.05 nM
- AUC ([7]; po, 0.1 mg/kg): 29.4 nM·h
- Cmax ([7]; po, 0.1 mg/kg): 3.49 nM
- AUC ([7]; po, 1 mg/kg): 294 nM·h
- Cmax ([7]; po, 1 mg/kg): 35 nM
- concentration at 0 h ([7]; po, 1 mg/kg): 0.31 nM
- concentration at 0.17 h ([7]; po, 1 mg/kg): 1.65 nM
- concentration at 0.33 h ([7]; po, 1 mg/kg): 5.75 nM
- concentration at 0.5 h ([7]; po, 1 mg/kg): 8.08 nM
- concentration at 0.75 h ([7]; po, 1 mg/kg): 11.9 nM
- concentration at 1 h ([7]; po, 1 mg/kg): 15.6 nM
- concentration at 2 h ([7]; po, 1 mg/kg): 26.6 nM
- concentration at 4 h ([7]; po, 1 mg/kg): 32.6 nM
- concentration at 6 h ([7]; po, 1 mg/kg): 33.2 nM
- concentration at 8 h ([7]; po, 1 mg/kg): 34.9 nM
- concentration at 10 h ([7]; po, 1 mg/kg): 29.7 nM
- concentration at 12 h ([7]; po, 1 mg/kg): 28.4 nM
- concentration at 24 h ([7]; po, 1 mg/kg): 17.2 nM
- Vd [8]: 35.5 L/kg
- Vd [9]: 10.2 L/kg
